The record followed here is patent publication US20100305157A1 (priority 2007, published 2010).

Structures are written as SMILES. Where two headings read alike, the source gives them in different places.

Data set [1] relates to human neuroblastoma cell line SH-SYSY. The experiment in a line: Neuroprotection against hydrogen peroxide-induced cell death (LDH release). The class given is cell-based. The settings on record: for inhibition at 3 µM: compound 3 micromolar (concentration of maximum protection); for inhibition at 10 µM: read-out: Protection (%); for inhibition at 1 µM: compound 1 micromolar (concentration of maximum protection); for inhibition at 30 µM: compound 30 micromolar (concentration of maximum protection).

In data set [2] the target is T1, purified AChE from Electrophorus electricus (Electrophorus electricus, UniProt O42275).
T1 construct: using purified AChE from Electrophorus electricus; from tissue
T1 sequence (O42275 24-633): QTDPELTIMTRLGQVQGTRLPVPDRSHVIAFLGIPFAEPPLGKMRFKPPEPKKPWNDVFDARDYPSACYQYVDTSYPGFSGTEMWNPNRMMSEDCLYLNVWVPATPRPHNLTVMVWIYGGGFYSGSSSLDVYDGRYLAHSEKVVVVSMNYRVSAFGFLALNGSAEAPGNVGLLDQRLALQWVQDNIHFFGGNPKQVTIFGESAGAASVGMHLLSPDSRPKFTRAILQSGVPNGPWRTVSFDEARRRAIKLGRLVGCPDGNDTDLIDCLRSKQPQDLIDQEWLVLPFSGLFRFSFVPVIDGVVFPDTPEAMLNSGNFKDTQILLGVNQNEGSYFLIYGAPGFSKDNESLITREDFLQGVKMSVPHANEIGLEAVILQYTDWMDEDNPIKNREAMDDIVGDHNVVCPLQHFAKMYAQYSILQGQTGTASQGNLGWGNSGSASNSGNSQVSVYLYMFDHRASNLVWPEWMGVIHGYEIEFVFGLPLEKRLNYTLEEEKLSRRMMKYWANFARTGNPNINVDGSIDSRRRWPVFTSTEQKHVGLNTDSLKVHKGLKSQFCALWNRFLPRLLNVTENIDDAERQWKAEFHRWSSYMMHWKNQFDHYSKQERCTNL
The experiment in a line: Inhibition of acetylcholinesterase (method of Rappaport). Type of data set: biochemical. The method, then:
For this reason, it was considered interesting to evaluate the capacity to inhibit AChE of the compounds of the present invention. This evaluation was performed following the method of Rappaport (Clin. Chim. Acta 1959, 4, 227), using purified AChE from Electrophorus electricus and acetylcholine chloride (29.5 milimolar) as substrate. The reaction took place in a final volumen of 2.5 milliliters of an aqueous solution containing 0.78 units of AChE and m-nitrophenol at 1.9 milimolar to produce a yellow color, which is lost in function of the enzyme activity.
Curves of inhibition were made incubating with the compounds of the present invention for 30 minutes and a sample without any compound was prepared to determine the 100% of the enzymatic activity. After 30 minutes of incubation, the loss of yellow color was evaluated by measuring absorbance at 405 nanometers in a spectrophotometric microplate reader (iEMS Reader MF, Labsystems). The concentration of compound producing 50% inhibition of AChE activity (IC50) was calculated transforming the values of absorbance to enzymatic activity Rappaport units extrapolating from a calibration curve previously obtained.
The results of inhibition of AChE, expressed as the concentration which inhibits 50% of activity (IC50) for the compounds of the present invention, are the following: […]

Data set [3] deals with T2, peripheral site of AChE from bovine erythrocytes (Bos taurus, UniProt P23795).
T2 construct: A solution of AChE from bovine erythrocytes; from tissue; host or cells: bovine erythrocytes
T2 sequence (P23795 31-614 isoform P23795-2 limits assumed): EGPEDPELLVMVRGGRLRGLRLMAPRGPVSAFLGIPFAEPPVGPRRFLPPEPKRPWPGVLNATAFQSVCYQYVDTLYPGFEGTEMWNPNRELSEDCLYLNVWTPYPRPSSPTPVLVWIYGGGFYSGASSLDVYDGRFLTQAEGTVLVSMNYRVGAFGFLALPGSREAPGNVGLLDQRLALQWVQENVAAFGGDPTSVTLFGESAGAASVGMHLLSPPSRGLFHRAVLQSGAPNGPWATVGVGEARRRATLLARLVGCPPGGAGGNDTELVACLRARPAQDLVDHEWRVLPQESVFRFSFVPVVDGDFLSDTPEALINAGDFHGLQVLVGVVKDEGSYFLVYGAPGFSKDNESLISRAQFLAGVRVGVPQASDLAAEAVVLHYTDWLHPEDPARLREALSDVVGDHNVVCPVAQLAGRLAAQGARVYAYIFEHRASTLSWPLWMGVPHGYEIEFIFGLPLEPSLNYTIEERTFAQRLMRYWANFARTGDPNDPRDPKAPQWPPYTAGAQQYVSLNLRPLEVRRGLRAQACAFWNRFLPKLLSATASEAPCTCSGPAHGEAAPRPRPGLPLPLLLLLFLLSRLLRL
The data set can be described thus: biochemical. Type of data set: binding. The settings on record: for inhibition at 0.3 µM: compound 0.3 micromolar (concentration of maximum reduction).
Protocol: A competition test for the peripheral site of acetylcholinesterase was carried out with the compounds at concentrations of 0.3, 1 and 3 micromolar.
A solution of AChE from bovine erythrocytes at the concentration of 5 micromolar in Tris buffer 0.1 milimolar and pH 8 was used.

Data set [4] concerns human neuroblastoma cell line SH-SYSY. The experiment in a line: Neuroprotection against rotenone plus oligomycin A-induced cell death (LDH release). The following applies: rotenone (30 micromolar) plus oligomycin A (10 micromolar). Background: LDH in the medium is a marker of cell lysis.
Protocol: With this goal in mind, the cytoprotective effect of the compounds was evaluated in human neuroblastoma cells, specifically the neuroprotective potential of these compounds against oxidative stress produced in two different models: with hydrogen peroxide as exogenous generator of free radicals, and with rotenone and oligomycin A, blockers of the mitochondrial respiratory chain, as described in J. Neurochem.
In the assays, SH-SYSY were sub-cultured in 48-well plates with a density of seed of 5×10^5 cells per well, or in 96-well plates with a density of 2×10^5 cells per well. In the cytotoxicity experiments, cells prepared in this way were treated with the compounds to test, in DMEM free of serum.
To study the cytoprotective action of different compounds against cell death induced by hydrogen peroxide 30 micromolar or by a combination of rotenone 30 micromolar with oligomycin A 10 micromolar, compounds were added to the medium and maintained there for 24 hours. Then, media were replaced by fresh media still containing the compound plus the cytotoxic agent, and were maintained there for an additional period of 24 hours. Cell viability was checked by measuring the activity of the enzyme LDH, as it was explained before, using the kit “Cytotoxicity Cell Death” (Roche-Boehringer Mannheim) following the instructions of the manufacturer. Total LDH activity was defined as the sum of intra plus extra LDH activities. Released LDH was defined as the percentage of extracellular compared with total LDH activity.
In all the pharmacological experiments a positive control was used as comparison and to evaluate the reliability of the method used.
For data set [5] the following is noted: PAMPA. A general note: PAMPA measures passive passage across an artificial lipid membrane.
Protocol: (§1) The experiments were performed using two 96-well microplate in a sandwich assembly. The top microplate (Millipore, Ref MAIPS4510) is provided with 96 hydrophobic PVDF filters, where a solution of a lipid extract of pig brain (Avanti Polar Lipids) in dodecane is put down.
(§2) The bottom microplate has 96 tear-shaped wells (Millipore, Ref. MAMCS9610). The acceptor 96-well microplate was filled with 180 μL per well of a mixture of phosphate buffer saline pH 7.4 (PBS) and EtOH in proportion 90:10. The filter surface of the donor microplate was impregnated with 4 μL of a solution of lipid extract from pig brain in dodecane (20 mg mL^−1). Compounds were dissolved in PBS/EtOH (90:10) and then 180 μL were added to the donor microplate, which is carefully placed on the receiver plate. After 120 minutes of incubation at 25° C., plate donor is carefully separated and determined the concentration of the compounds in the acceptor plate by UV spectroscopy. This method measures the permeability, expressed as the rate of passage of a given barrier in 10^−6 centimeter per second (10^−6 cm s^−1). The results are expressed as the mean plus/minus the standard deviation of three independent assays, each containing four replicates of each tested compound.
A further data set is described as follows: in vitro. The following applies: pig, PAMPA, pH 7.4.
Where [6] appears, read: oxygen peroxide (60 micromolar) stimulus, SH-SYSY, LDH.
The mark [7] stands for this setting: 30 minutes incubation, acetylcholine chloride 29.5 milimolar as substrate, read-out: AChE-I, IC50.
The mark [8] stands for this setting: compound 3 micromolar (concentration of maximum reduction), propidium 20 micromolar, AChE 5 micromolar, read-out: Protection (%) (percentage of the reduction in propidium fluorescence).
[9] abbreviates: compound 0.3 micromolar (concentration of maximum protection).
Setting [10] is: oxygen peroxide (60 micromolar) stimulus, compound 10 micromolar (concentration of maximum protection), SH-SYSY, LDH.
The mark [11] stands for this setting: read-out: Protection (%) (percentage of the reduction in propidium fluorescence).
The mark [12] stands for this setting: propidium 20 micromolar, AChE 5 micromolar, read-out: Protection (%) (percentage of the reduction in propidium fluorescence).
Setting [13] is: compound 3 micromolar (concentration of maximum protection).

Protocol for in vitro: as §1, §2

With `CCCCCCOC(=O)C(CCC(=O)NCCC1CCN(Cc2ccccc2)CC1)NC(=O)c1ccccc1` (stereo not shown) [Example 1.3, n-hexyl 2-benzoylamino-4-[2-(1-benzylpiperidin-4-yl)-ethylcarbamoyl]-butyrate], the results for the inhibition at 3 µM in data set [1] (setting [6]) and in data set [3] (setting [8]) were 68.1% and 37.3%, respectively. For the same molecule, the IC50 (commonly the concentration needed to halve the response being measured) in data set [2] (setting [7]) was found to be 1900 nM. Besides, in data set [4] (setting [9]), the “Protection (%)” value is reported as 47.9%.

Consider `CCCCCCOC(=O)C(CCC(=O)NCCC1CCN(Cc2ccccc2)CC1)NC(=O)c1cccs1` (stereo not shown) [Example 1.8, n-hexyl 4-[2-(1-benzyl-piperidin-4-yl)-ethylcarbamoyl]-2-[(thiophen-2-carbonyl)-amino]-butyrate], for which the inhibition at 10 µM in data set [1] (setting [10]) turned out to be 73%. Besides, in data set [2] (setting [7]), the half-inhibitory concentration (IC50) worked out at 3500 nM. Further, in data set [3] (setting [8]), the inhibition at 3 µM worked out at 15%. For the same molecule, the “Classification (CNS penetration)” value in data set [5] was “CNS+”. The apparent permeability (Papp) – broadly, the rate of passage across a membrane or cell layer, normalised by area and donor concentration – at 120 min in the data set “in vitro” was found to be 5.3 ± 0.01 ×10⁻⁶ cm/s. The “Protection (%)” value in data set [4] (compound 0.1 micromolar (concentration of maximum protection)) turned out to be 48.9%.

In the case of `CCCCCCOC(=O)C(CCC(=O)NCCC1CCN(Cc2ccccc2)CC1)NC(=O)OCc1ccccc1` (stereo not shown) [Example 1.1, n-hexyl 2-benzyloxycarbonylamino-4-[2-(1-benzylpiperidin-4-yl)-ethylcarbamoyl]-butyrate], in data set [1], the inhibition at 10 µM amounted to 39.1%. The IC50 in data set [2] was determined as 1400 nM. Moreover, the inhibition at 3 µM in data set [3] (setting [11]) was 29.3%.

For the molecule `CCCCCCOC(=O)C(CCC(=O)NCCC1CCN(Cc2ccccc2)CC1)NC(=O)Cc1cc2ccc(Cl)cc2s1` (stereo not shown) [Example 1.5, n-hexyl 4-[2-(1-benzyl-piperidin-4-yl)-ethylcarbamoyl]-2-[2-(6-chloro-benzo[b]thiophen-2-yl)-acetylamino]-butyrate], the results for the inhibition at 3 µM in data set [1] (setting [6]) and in data set [3] (setting [8]) were 32.5% and 23.4%, respectively. Further, the IC50 in data set [2] (setting [7]) amounted to 2300 nM.

Regarding `CCCCCCOC(=O)C(CCC(=O)NCCC1CCN(Cc2ccccc2)CC1)NC(=O)OC(C)(C)C` (stereo not shown) [Example 1.2, n-hexyl 4-[2-(1-benzylpiperidin-4-yl)-ethylcarbamoyl]-2-tert-butoxycarbonylamino-butyrate], the inhibition at 1 µM worked out at 24.9% in data set [1] (setting [6]) and 43.6% in data set [3] (setting [11]). In data set [2], this molecule returned an IC50 of 5000 nM. Moreover, the “Classification (CNS penetration)” value in data set [5] was “CNS+”. Moreover, in the data set “in vitro”, the Papp at 120 min worked out at 4.4 ± 0.1 ×10⁻⁶ cm/s.

The molecule `CCCCCCOC(=O)C(CCC(=O)NCCC1CCN(Cc2ccccc2)CC1)NC(=O)c1cc2cccnc2s1` (stereo not shown) [Example 1.6, n-hexyl 4-[2-(1-benzyl-piperidin-4-yl)-ethylcarbamoyl]-2-[(thieno[2,3-b]piridin-2-carbonyl)-amino]-butyrate] displayed an inhibition at 30 µM in data set [1] (setting [6]) of 48.8%. Also, the IC50 in data set [2] (setting [7]) is 3250 nM. For the same molecule, the inhibition at 0.3 µM in data set [3] (setting [12]) was 37.4%. Further, the “Classification (CNS penetration)” value in data set [5] was “CNS+”. The Papp at 120 min in “in vitro” is 3.2 ± 0.01 ×10⁻⁶ cm/s.

Consider `CCCCCCOC(=O)C(CCC(=O)NCCC1CCN(Cc2ccccc2)CC1)NC(=O)c1cc(Br)cs1` (stereo not shown) [Example 1.9, n-hexyl 4-[2-(1-benzyl-piperidin-4-yl)-ethylcarbamoyl]-2-[(4-bromo-thiophen-2-carbonyl)-amino]-butyrate], for which, in data set [1] (setting [6]), the inhibition at 3 µM turned out to be 84.3%. Besides, the IC50 in data set [2] (setting [7]) worked out at 1200 nM. Moreover, the inhibition at 0.3 µM in data set [3] (setting [12]) came out at 11.3%. In data set [4] (setting [13]), the “Protection (%)” value worked out at 35.9%.

As for `CCCCCCOC(=O)C(CCC(=O)NCCC1CCN(Cc2ccccc2)CC1)NC(=O)c1cc2ccccc2s1` (stereo not shown) [Example 1.4, n-hexyl 2-[(benzo[b]tiofen-2-carbonyl)-amino]-4-[2-(1-benzyl-piperidin-4-yl)-ethylcarbamoyl]-butyrate], the inhibition at 1 µM in data set [1] (setting [6]) is 28.7%. Besides, in data set [2] (read-out: AChE-I, IC50), the IC50 was 2500 nM. Moreover, the inhibition at 3 µM in data set [3] (setting [8]) stood at 39.7%.

Turning to `CCCCCCOC(=O)C(CCC(=O)NCCC1CCN(Cc2ccccc2)CC1)NC(=O)c1cc2ccsc2s1` (stereo not shown) [Example 1.7, n-hexyl 4-[2-(1-benzyl-piperidin-4-yl)-ethylcarbamoyl]-2-[(thieno[2,3-b]thiophen-2-carbonyl)-amino]-butyrate], the inhibition at 10 µM in data set [1] (setting [10]) came out at 46.4%. Also, the IC50 in data set [2] (setting [7]) was determined as 3500 nM. Moreover, the inhibition at 0.3 µM in data set [3] (setting [12]) turned out to be 42.2%. Moreover, in data set [4] (setting [9]), the “Protection (%)” value amounted to 46.1%.

`Cc1c(C)c2c(c(C)c1O)CCC(C)(C(=O)O)O2` (stereo not shown) [Trolox, trolox, reference compound] showed an inhibition at 30 µM in data set [1] (setting [6]) of 57.7%. Besides, the “Protection (%)” value in data set [4] (setting [13]) is recorded as 52.9%.

For `C=CC[N+](C)(C)c1ccc(CCC(=O)CCc2ccc([N+](C)(C)CC=C)cc2)cc1.[Br-].[Br-]` [BW284c51, reference compound], the “Protection (%) (percentage of the reduction in propidium fluorescence)” value in data set [3] (positive control at 1000 micromolar (1 milimolar), propidium 20 micromolar, AChE 5 micromolar) was found to be 24.5%.
